We go through 1 molecule from patent US8853215B2, “Derivatives of N-acyl-N′-phenylpiperazine useful (inter alia) for the prophylaxis or treatment of diabetes” (Takeda Pharmaceutical Company Limited, priority 2009, dated 2014).

One experiment addresses human RBP4 (Homo sapiens (Human), UniProt P02753). Briefly: Binding assay by Retinol-RBP4-TTR ELISA. The conditions noted are these: at 10 μM compound; read-out: human RBP4 binding inhibitory activity(% at 10 μM). The method in brief:
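Biotinylated human TTR was captured on streptavidin plates, then His-tagged human RBP4 was added with compound premixed with 50 nM retinol (8 doses). Binding ran 2 h at room temperature in 50 mM Tris-HCl, 150 mM NaCl, 0.005% Tween 20, 1 mM DTT, 0.1% BSA, read by luminescence. Inhibition was scaled between retinol+DMSO and retinol-free controls, and IC50 fitted.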

For the next experiment, the target named is RBP4 (Rattus norvegicus (Rat), UniProt P04916). Briefly: Single administration test in Wistar fatty rats, plasma RBP4 by ELISA. Type of experiment: in vivo. The conditions noted are these: male Wistar fatty rats, 10 mg/kg oral single dose, mean±SD. The method, then:
The action of the compounds of the present invention to lower plasma RBP4 level was evaluated using the animal model shown below.
Male Wistar fatty rats (fa/fa) were bred in Takeda Pharmaceutical Company Limited and maintained on normal diet (CE2, CLAE Japan, Inc.) and tap water. Animals were housed in a temperature-controlled room adjusted to a 12-hour light/12-hour dark cycle beginning at 7:00 and 19:00, respectively. All procedures were conducted according to the experimental animal care use committee of Takeda Pharmaceutical Company.
Male 13-43-week-old Wistar fatty rats were divided into groups randomly. Compounds were suspended in 0.5% (w/v) methylcellulose in water and given orally to Wistar fatty rats at a dose of 10 mg/10 mL/kg of body weight (3-5 rats per group). Blood samples were obtained from tail vein with sodium heparin as an anticoagulant at time 0 hr (just before the administration), 4 hr, 7 hr, and 24 hr after the administration, followed by plasma separation by centrifugation. Plasma RBP4 levels were measured by enzyme-linked immunosorbent assay described in the following section.
Plasma samples were analyzed in duplicate for RBP4 by an enzyme-linked immunosorbent assay. Mouse recombinant RBP4 (Takeda Pharmaceutical Company Limited) was used as standards, and the assay range was 0.313-20 ng/ml. Samples were diluted 10,000-fold with phosphate-buffered saline (PBS) (Sigma) containing 10% (w/v) BlockAce (Dainippon Sumitomo Pharma Co., Ltd). Rabbit anti-RBP4 polyclonal antibody (100 μL/well of 50 μg/mL, Hokudo Co, Ltd) was incubated in a 96-well plate (Nalge Nunc International K.K.) for overnight at 4° C. Subsequently, the plates were washed with PBS-T (Wako Pure Chemical Industries, Ltd.) and blocked with PBS containing 25% BlockAce for 1 hr at room temperature. After another washing with PBS-T, samples and standards were applied to the well, and the plates were incubated for 2 hr at room temperature. After a washing the wells, peroxidase-labeled (Dojindo Laboratories) anti-RBP4 (100 μL/well) was added to the wells, and then the plates were incubated for 1 hr at room temperature. After a final washing with PBS-T, substrate solution 3,3,5,5-tetramethylbenzidine (Sigma) was added to the wells, and the plates were placed in the dark for 5-20 min at room temperature. The reaction was stopped with 0.5 M sulphuric acid and the optical density was measured with a spectrophotometer at 450 nm. The changes in plasma RBP4 levels were expressed as % of initial/Control. All data are presented as mean±SD.

In the next experiment the test system is CD (SD) rats. Description: Repeated drug administration test in CD (SD) rats, retinol in plasma and retina by HPLC. Type of experiment: in vivo. The method, then: The effect of the compound on retinol level in retina was evaluated using the animal model shown below.
Male CD (SD) rats were purchased from Charles River (Japan) and maintained on normal diet (CR-LPF) (Oriental Yeast Co., Ltd.) and tap water. Animals were housed in a temperature-controlled room adjusted to a 12-hour light/12-hour dark cycle beginning at 7:00 and 19:00, respectively. All procedures were conducted according to the experimental animal care use committee of Takeda Pharmaceutical Company.
A compound was suspended in 0.5% (w/v) methylcellulose in water and given orally to rats at a volume of 10 mL/kg of body weight. Drug administration was started at 6 weeks of age and a drug (10 mg/kg) was administered once a day for 14 days. After repeated administration, blood samples were obtained from tail vein. Rats were dissected under anesthesia with ethyl ether and eyes were isolated.
Retina was isolated from the eye of the rats mentioned 5B with stereoscopic microscope and sonicated. Retinol was extracted into n-hexane and samples were taken to dryness under nitrogen gas. Samples residues were resuspended into 2-propanol and analyzed by HPLC. Chromatographic separations were achieved on TSKgel ODS120T Column (4.6×250 mm) (Tosoh) using Alliance series reverse phase HPLC (Waters). The mobile phase contained acetonitrile/methanol (3/1) at 4° C. and detected at UV 325 nm. Retinol in retina was corrected by total protein detected by BCA protein assay (Pierce).

Each structure is given as a SMILES string.

Consider `O=C(O)CCc1nc(-c2cc(C(F)(F)F)cc(C(F)(F)F)c2)co1` [Reference Example 26, 3-{4-[3,5-bis(trifluoromethyl)phenyl]-1,3-oxazol-2-yl}propanoic acid, reference compound], for which, on human RBP4, the inhibition at 10 µM came out at 100%. At RBP4 (0 hr (just before the administration)), the “RBP4 (% of initial/Control) 0 hr” value is given as 100 ± 22.9 % of initial/Control. In addition, the “RBP4 (% of initial/Control) 4 hr” value at RBP4 (4 hr after administration) was 34.7 ± 13.7 % of initial/Control. Further, at RBP4 (7 hr after administration), the “RBP4 (% of initial/Control) 7 hr” value is 24.9 ± 10.6 % of initial/Control. The “RBP4 (% of initial/Control) 24 hr” value on RBP4 (24 hr after administration) was 9.2 ± 6.1 % of initial/Control. Besides, in the experiment on CD (SD) rats (CD (SD) rats, 10 mg/kg, 14 days repeated administration), the “effect on retinol in plasma and retina (in words)” value is “decreased retinol in plasma and retina significantly”. In addition, in the experiment with CD (SD) rats (male CD (SD) rats, 10 mg/kg oral once a day for 14 days, corrected by total protein, mean±SD), the “Retinol in retina” value came to 0.06 ± 0.01 µg/mg. For the same molecule, the “Retinol in plasma (μg/mL)” value with CD (SD) rats (male CD (SD) rats, 10 mg/kg oral once a day for 14 days, mean±SD) is on record as “Not detected”.
